Measured values from patent US10729671B2, “Zinc complexes of hydrazones and (thio)semicarbazones and their use for the treatment of cancer” (RUTGERS, THE STATE UNIVERSITY OF NEW JERSEY, priority 2015, dated 2020).
pKd: −log10 of the molar value.

Tests used:
TOV112D = experiment: Cell-based TOV112D activity (cell growth inhibition assay); set-up: species or system human
Zn2+ binding affinity = experiment: Zn2+ binding affinity
Method: It can function as an ionophore in conditions of the liposome experiments where external [Zn^2+]free was 10 μM. However, in complete media containing 10% fetal bovine serum (FBS), Zn^2+-binding proteins from the serum (e.g. albumin) necessarily compete for Zn^2+ with any putative MC, making the effective [Zn^2+]free much lower than [Zn^2+]total.
FZ3-AM, RZ-3 (K^+ salt), and cell culture media were purchased from Life Technologies. DOPC was purchased from Avanti Polar Lipids. ZMC1 and A6 were similarly obtained. […] HEK293 and TOV112D cells were purchased from ATCC and maintained in DMEM+GlutaMAX with 10% FBS and 1 mg/mL penicillin-streptomycin under a 5% CO2 atmosphere at 37° C. All non-cell based experiments were conducted in 50 mM Tris pH 7.2, 0.1 M NaCl at 25° C.

[1] = Liposome import assay (RZ-3 fluorescence); settings: for Zn2+ transport into liposomes: external [Zn2+]free 10 μM
Method: DOPC-liposomes were prepared by film rehydration and extrusion followed by gel filtration and diluted to an OD600=0.06 in buffer. The size distribution of the liposomes was determined by dynamic light scattering (DLS) using a Malvern Zetasizer Nano ZS. Fluorescence measurements were taken on a Horiba Fluoromax-4 spectrofluorimeter in a 5×5 mm quartz cuvette with λex/λem=550/572 nm for RZ-3 and 490/515 nm for calcein. Initial Zn^2+ import/export was quantified by fitting the first 10-30 s of data after each treatment to a line and converted to units of flux using the following Eqn 1:
[formula] where Ji is the initial flux, ΔF/Δt is the slope of the fit line, Fmax is RZ-3 fluorescence in the presence of saturating Zn^2+ and 1% TritonX-100, Fmin is RZ-3 fluorescence in the presence of excess EDTA and 1% TritonX-100, [RZ3] is the concentration of encapsulated RZ-3, and SA/Vol is the surface area to volume ratio calculated assuming hollow spheres of the mean diameter determined by DLS. Intracellular [Zn^2+]free Imaging TOV112D or HEK293 cells (40,000 cells/well) were plated on either 8-well BD Falcon chambered culture slides (Corning Life Sciences) or 8-chambered #1.5 Nunc Lab-Tek II chambered coverglasses (Thermo Scientific) treated with poly-L-lysine. After 48 h, cells were washed 2×5 m in serum-free media and incubated with 1 μM FZ3-AM for 40 m at 37° C. Cells were then washed 2×5 m in either EBSS/H (−)Ca/Mg or phenol-red free DMEM+10% FBS containing the indicated treatments for 20 m before imaging. […] To determine the kinetics of fluorescence change, each background-subtracted image in the time-lapse series was integrated in ImageJ and normalized to the integrated fluorescence of the first frame after treatment. For quantification of intracellular [Zn^2+]free, each cell was analyzed in the treated, 50 μM PYR/ZnCl2 (1:1), and 100 μM TPEN images by taking the mean fluorescence of an ROI inside the cell subtracted by an ROI immediately outside the cell measured in ImageJ. The [Zn^2+]free for each cell was then calculated by Eqn 2: […]

HEK293 cells = experiment: Intracellular [Zn2+]free imaging with FluoZin-3-AM in HEK293 cells; assay type: cell-based
Method: (§1) To minimize the potential for Zn^2+ contamination and contributions from poorly defined elements in complete media (e.g. FBS), cells were treated and imaged in Ca^2+ and Mg^2+-free Earle's Balanced Salt Solution supplemented with 10 mM HEPES pH 7.4 (EBSS/H (−)Ca/Mg). Excess ZnCl2 with the Zn^2+ ionophore pyrithione (PYR) was used as a positive control. Excess membrane-permeable Zn^2+ chelator N,N,N′,N′-tetrakis(2-pyridylmethyl)ethane-1,2-diamine (TPEN) was used as a negative control.
To normalize for differential dye loading, cells were then sequentially treated with excess PYR/ZnCl2, imaged, treated with TPEN, and imaged again. PYR/ZnCl2 and TPEN served to saturate and apoize the intracellular FZ3, respectively.
[formula] where Ji is the initial flux, ΔF/Δt is the slope of the fit line, Fmax is RZ-3 fluorescence in the presence of saturating Zn^2+ and 1% TritonX-100, Fmin is RZ-3 fluorescence in the presence of excess EDTA and 1% TritonX-100, [RZ3] is the concentration of encapsulated RZ-3, and SA/Vol is the surface area to volume ratio calculated assuming hollow spheres of the mean diameter determined by DLS. Intracellular [Zn^2+]free Imaging TOV112D or HEK293 cells (40,000 cells/well) were plated on either 8-well BD Falcon chambered culture slides (Corning Life Sciences) or 8-chambered #1.5 Nunc Lab-Tek II chambered coverglasses (Thermo Scientific) treated with poly-L-lysine. After 48 h, cells were washed 2×5 m in serum-free media and incubated with 1 μM FZ3-AM for 40 m at 37° C. Cells were then washed 2×5 m in either EBSS/H (−)Ca/Mg or phenol-red free DMEM+10% FBS containing the indicated treatments for 20 m before imaging. For nuclear colocalization, 1 μg/mL Hoechst 33342 was also included. Cells were imaged using a Zeiss LSM510 META NLO confocal microscope equipped with 37° C. environmental control chamber. FZ3 and Hoechst 33342 were excited at 488 nm (argon laser) and 790 nm (Chameleon Ti:sapphire laser), respectively. To determine the kinetics of fluorescence change, each background-subtracted image in the time-lapse series was integrated in ImageJ and normalized to the integrated fluorescence of the first frame after treatment. For quantification of intracellular [Zn^2+]free, each cell was analyzed in the treated, 50 μM PYR/ZnCl2 (1:1), and 100 μM TPEN images by taking the mean fluorescence of an ROI inside the cell subtracted by an ROI immediately outside the cell measured in ImageJ. The [Zn^2+]free for each cell was then calculated by Eqn 2:
[formula] […] To minimize the effects of outliers the lowest and highest 5% of cells in each series were rejected, and the remaining values averaged to give the value from that experiment. The number of cells analyzed in each trial ranged from 54-163. […]

TOV112D cells = experiment: Intracellular [Zn2+]free imaging with FluoZin-3-AM in TOV112D cells; assay type: cell-based; settings: ZMC1 alone (no ZnCl2), EBSS/H (−)Ca/Mg
Method: as §1
To normalize for differential dye loading, cells were then sequentially treated with excess PYR/ZnCl2, imaged, treated with TPEN, and imaged again. […]
[formula] where Ji is the initial flux, ΔF/Δt is the slope of the fit line, Fmax is RZ-3 fluorescence in the presence of saturating Zn^2+ and 1% TritonX-100, Fmin is RZ-3 fluorescence in the presence of excess EDTA and 1% TritonX-100, [RZ3] is the concentration of encapsulated RZ-3, and SA/Vol is the surface area to volume ratio calculated assuming hollow spheres of the mean diameter determined by DLS. […] To determine the kinetics of fluorescence change, each background-subtracted image in the time-lapse series was integrated in ImageJ and normalized to the integrated fluorescence of the first frame after treatment. […] The [Zn^2+]free for each cell was then calculated by Eqn 2:
[formula] […] The number of cells analyzed in each trial ranged from 54-163. […]

[2] = HEK293 (non-cancer, p53-WT), FZ3-AM, complete media, confocal microscopy

Row | SMILES | Activity TOV112D (TOV112D) | other results
1 | C/C(=N\NC(=S)N1CCC1)c1cnccn1 [Compound 1, (E)-N′-(1-(Pyrazin-2-yl)ethylidene)azetidine-1-carbothiohydrazide] | ++ | 
2 | C/C(=N\NC(=S)N1CCC1)c1cc(N(C)C)ccn1 [Compound 2, (E)-N′-(1-(4-(dimethylamino)pyridin-2-yl)ethylidene)azetidine-1-carbothiohydrazide] | +++ | 
3 | C/C(=N\Nc1nc2ccccc2s1)c1ccccn1 [Compound 3, (E)-2-(2-(1-(pyridin-2-yl)ethylidene)hydrazinyl)benzo[d]thiazole] | +++ | 
4 | C/C(=N\Nc1nc2ccccc2o1)c1ccccn1 [Compound 4, (E)-2-(2-(1-(pyridin-2-yl)ethylidene)hydrazinyl)benzo[d]oxazole] | +++ | 
5 | C/C(=N\Nc1nc2ccccc2[nH]1)c1ccccn1 [Compound 9, (E)-2-(2-(1-(pyridin-2-yl)ethylidene)hydrazinyl)-1H-benzo[d]imidazole] | +++ | 
6 | C/C(=N\Nc1nc2ccccc2n1C)c1ccccn1 [Compound 10, (E)-1-methyl-2-(2-(1-(pyridin-2-yl)ethylidene)hydrazinyl)-1H-benzo[d]imidazole] | +++ | 
7 | CC/C(=N\Nc1nc2ccccc2s1)c1ccccn1 [Compound 11, (E)-2-(2-(1-(pyridin-2-yl)propylidene)hydrazinyl)benzo[d]thiazole] | +++ | 
8 | CC(C)/C(=N\Nc1nc2ccccc2s1)c1ccccn1 [Compound 12, (E)-2-(2-(2-methyl-1-(pyridin-2-yl)propylidene)hydrazinyl)benzo[d]thiazole] | + | 
9 | C/C(=N\Nc1nc2ccccc2s1)c1ncc[nH]1 [Compound 13, (E)-2-(2-(1-(1H-imidazol-2-yl)ethylidene)hydrazinyl)benzo[d]thiazole] | + | 
10 | C/C(=N\Nc1nc2cc(F)ccc2s1)c1ccccn1 [Compound 14, (E)-5-fluoro-2-(2-(1-(pyridin-2-yl)ethylidene)hydrazinyl)benzo[d]thiazole] | +++ | 
11 | C/C(=N\Nc1nc2ccc(F)cc2s1)c1ccccn1 [Compound 15, (E)-6-fluoro-2-(2-(1-(pyridin-2-yl)ethylidene)hydrazinyl)benzo[d]thiazole] | +++ | 
12 | C/C(=N\NC(=O)N1CCC1)c1ccccn1 [Compound A6] |  | pKd (Zn2+ binding affinity): 5.96; Zn2+ transport into liposomes [1]: shuttled Zn^2+ into the liposomes; increase of intracellular [Zn2+]free (HEK293 cells; [2]): did not
13 | O=C(O)CN(CC(=O)O)CC(=O)O [NTA] |  | Zn2+ transport into liposomes [1]: did not; increase of intracellular [Zn2+]free (HEK293 cells; [2]): did not
14 | C/C(=N\NC(=S)N1CCC1)c1ccccn1 [ZMC1] |  | RZ-3 fluorescence after reversal of the [Zn2+]free gradient (Zn2+ export) ([1]; large excess of EDTA outside of the liposomes, then ZMC1 added): time dependent decrease; increase of intracellular [Zn2+]free (HEK293 cells; [2]): increased; increase of intracellular [Zn2+]free (HEK293 cells; HEK293, ZMC1 alone (no ZnCl2), EBSS/H (−)Ca/Mg): neither cell type showed an increase; increase of intracellular [Zn2+]free (TOV112D cells): neither cell type showed an increase
